Measurements: patent US4965280A, “Antifungal carbinols” (E. I. Du Pont de Nemours and Company, priority 1989, dated 1990)
Read-outs that look alike come from different tables or passages of the source.

Legend:
[1] = system: Phytophthora infestans; assay: whole plant or invertebrate; assay type: in vivo; conditions: Phytophthora infestans, in Solanum lycopersicum, read-out: disease control rating, Ex. H, 100 PPM
[2] = system: Rhizoctonia solani; assay: Example F rice sheath blight; assay type: in vivo; conditions: Rhizoctonia solani, 144 h, 100 PPM; read-out: disease control rating, Ex. F
Procedure, shortened: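 Compounds, dissolved in acetone at 6% of final volume, were suspended at 100 or 20 ppm in purified water with 250 ppm polyhydric alcohol ester surfactant (TREM 014). Rice seedlings were sprayed with this suspension to run-off.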

[3] = system: Candida albicans ATCC 11651; assay: In vivo systemic Candida infection in mice, primary assay; set-up: species or system Candida albicans; CF-1 female mice; conditions: Candida albicans, 150 mg/kg per day, read-out: % Survival
Procedure, shortened: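 CF-1 female mice (20 g, 10 per group) were infected IV with 0.2 ml of 1×10^7/ml C. albicans ATCC 11651, then given test compound subcutaneously at 50 or 150 mg/kg/day at 1 and 6 h post-infection and once daily for three more days. Survival was followed for 21 days against infected untreated mice; ≥70% protection at 14 days was scored active.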

[4] = system: Cercosporidium personatum; assay: Example B Peanut Late Leafspot; assay type: in vivo; conditions: Nothopassalora personata; 100 PPM; read-out: disease control rating, Ex. B
Procedure, shortened: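 Compounds were dissolved in acetone (6% of final volume) and suspended at 100 or 20 ppm in purified water containing 250 ppm TREM 014 surfactant (polyhydric alcohol esters). The suspension was sprayed to run-off on peanut seedlings.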

[5] = system: Sclerotium rolfsii; assay: Example M southern blight; assay type: in vivo; conditions: Agroathelia rolfsii, 336 h; 5 kg/ha; read-out: disease control rating, Ex. M
Procedure: […] Seeds and soil were then inoculated with a mixture of sand, cereal and mycelium of the fungus Sclerotium rolfsii, causal agent of sourthern blight, and incubated in a growth chamber at 30° C. for 14 days. Disease ratings were then made.

[6] = system: Erysiphe graminis f. sp. tritici; assay: Example D wheat powdery mildew; assay type: in vivo; conditions: Blumeria graminis, 144 h; 100 PPM; read-out: disease control rating, Ex. D
Procedure, shortened: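 Compounds were dissolved in acetone (6% of final volume), then suspended at 100 or 20 ppm in purified water containing 250 ppm TREM 014 surfactant. Wheat seedlings were sprayed with this suspension to run-off.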

[7] = system: Pyricularia oryzae; assay: whole plant or invertebrate; assay type: in vivo; conditions: Pyricularia oryzae, 120 h, read-out: disease control rating, Ex. E, 100 PPM
[8] = system: Plasmorpara viticola; assay: Example I grape downy mildew; assay type: in vivo; conditions: read-out: disease control rating, Ex. I
Procedure, shortened: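 Compounds were dissolved in acetone (6% of final volume) and suspended at 100 or 20 ppm in purified water with 250 ppm TREM 014 surfactant (polyhydric alcohol esters). Grape seedlings were sprayed with this suspension to run-off.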

[9] = system: Puccinia recondita; assay: Example G wheat leaf rust; assay type: in vivo; conditions: 100 PPM, read-out: disease control rating, Ex. G
[10] = system: Rhizoctonia solani; assay: Example K cotton blight; assay type: in vivo; conditions: 336 h, 5 kg/ha, read-out: disease control rating, Ex. K
Procedure: […] Seeds and soil were then inoculated with a mixture of sand, cereal and mycelium of the fungus Rhizoctonia solani, causal agent of cotton blight, and incubated in a growth chamber at 30° C. for 14 days. Disease ratings were then made.

Structure (SMILES)	pest or weed control at 100 ppm [1]	pest or weed control at 100 ppm [2]	responders at 150 mg/kg ([3]; ATCC11651, 168 h, day 7)	responders at 150 mg/kg ([3]; ATCC11651, 336 h, day 14)	responders at 150 mg/kg ([3]; ATCC11651, 504 h, day 21)	pest or weed control at 100 ppm [4]	pest or weed control at 5000 g/ha [5]	pest or weed control at 100 ppm [6]	pest or weed control at 100 ppm [7]	pest or weed control at 100 ppm [8]	pest or weed control at 100 ppm [9]	pest or weed control at 5000 g/ha [10]
C=C(c1ccccc1)C(O)(Cn1cncn1)c1ccc(F)cc1F (stereo not shown) [Example 52, 2-(2,4-Difluorophenyl)-3-phenyl-1-(1H-1,2,4-triazol-1-yl)-3-buten-2-ol]	0%	81%	100%	100%	90%	100%	0%	94%	93%	0%	100%	
C=C(c1ccccc1)C(O)(Cn1cncn1)c1ccc(Cl)cc1 (stereo not shown) [Example 51, 2-(4-Chlorophenyl)-3-phenyl-1-(1H-1,2,4-triazol-1-yl)-3-buten-2-ol]	0%	100%	100%	100%	80%	100%		100%	0%	0%	100%	
C=C(c1ccc(F)cc1)C(O)(Cn1cncn1)c1ccc(F)cc1F (stereo not shown) [Example 4, 2-(2,4-Difluorophenyl)-3-(4-fluorophenyl)-1-(1H-1,2,4-triazol-1-yl)-3-buten-2-ol]	0%	100%	100%	50%		100%	0%	100%	96%	81%	100%	0%
C=C(c1ccc(F)cc1)C(O)(Cn1cncn1)c1ccccc1F (stereo not shown) [Example 644]	23%	100%	80%	70%	50%	100%		100%	100%	0%	100%	0%
